This passage reports IC50 results from US10980809B2, “Urea-substituted aromatic ring-linked dioxane-quinazoline and -linked dioxane-quinoline compounds, preparation method therefor and use thereof” (BEIJING SCITECH-MQ PHARMACEUTICALS LIMITED, priority 2017, dated 2021).

Chain of VEGFR-2 kinase (P35968 20-1356): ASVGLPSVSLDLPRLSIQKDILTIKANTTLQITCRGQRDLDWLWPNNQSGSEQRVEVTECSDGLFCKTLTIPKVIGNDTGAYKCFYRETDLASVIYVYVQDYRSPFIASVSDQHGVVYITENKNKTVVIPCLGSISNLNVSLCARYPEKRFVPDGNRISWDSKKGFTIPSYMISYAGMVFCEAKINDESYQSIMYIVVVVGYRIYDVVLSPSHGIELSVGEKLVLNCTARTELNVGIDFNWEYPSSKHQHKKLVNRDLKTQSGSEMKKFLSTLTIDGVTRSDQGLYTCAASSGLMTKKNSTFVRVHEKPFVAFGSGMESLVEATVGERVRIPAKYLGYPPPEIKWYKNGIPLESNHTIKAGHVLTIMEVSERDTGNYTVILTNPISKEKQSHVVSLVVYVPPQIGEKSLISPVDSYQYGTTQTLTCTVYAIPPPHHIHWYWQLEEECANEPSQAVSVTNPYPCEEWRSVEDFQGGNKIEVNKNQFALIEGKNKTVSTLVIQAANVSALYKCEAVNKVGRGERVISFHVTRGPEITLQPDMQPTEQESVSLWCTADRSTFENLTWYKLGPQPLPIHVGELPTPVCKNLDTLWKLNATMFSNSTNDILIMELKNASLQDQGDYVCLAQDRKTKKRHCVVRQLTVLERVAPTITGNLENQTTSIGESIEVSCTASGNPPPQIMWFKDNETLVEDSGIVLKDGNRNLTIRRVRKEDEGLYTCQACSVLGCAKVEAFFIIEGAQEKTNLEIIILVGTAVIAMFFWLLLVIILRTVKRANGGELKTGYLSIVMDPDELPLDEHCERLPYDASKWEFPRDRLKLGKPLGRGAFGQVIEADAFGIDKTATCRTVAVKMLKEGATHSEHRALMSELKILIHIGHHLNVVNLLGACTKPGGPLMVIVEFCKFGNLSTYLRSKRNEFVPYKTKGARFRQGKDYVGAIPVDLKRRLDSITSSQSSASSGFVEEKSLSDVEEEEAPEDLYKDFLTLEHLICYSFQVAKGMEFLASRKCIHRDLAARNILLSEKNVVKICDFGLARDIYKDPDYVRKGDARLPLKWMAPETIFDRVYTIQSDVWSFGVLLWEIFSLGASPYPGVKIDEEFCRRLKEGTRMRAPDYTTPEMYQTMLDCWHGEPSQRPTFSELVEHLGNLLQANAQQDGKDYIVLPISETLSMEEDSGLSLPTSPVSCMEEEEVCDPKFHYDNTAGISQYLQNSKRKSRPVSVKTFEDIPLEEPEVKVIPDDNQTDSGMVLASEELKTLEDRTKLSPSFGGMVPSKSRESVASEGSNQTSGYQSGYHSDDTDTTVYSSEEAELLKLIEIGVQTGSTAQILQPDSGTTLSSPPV

In this assay the target is VEGFR-2 kinase (Homo sapiens (Human), UniProt P35968). Briefly: Test of small molecule compounds for inhibiting the activity of VEGFR-2 kinase. Format: biochemical. Particulars: class symbols A-D. As for the experimental part:
Test of Small Molecule Compounds for Inhibiting the Activity of VEGFR-2 Kinase
The test was carried out as follows:
2. 2.5 μl of the gradient-diluted compounds was taken with a transfer pipette to a 384-well plate,
3. Addition of enzyme: 5 μl of 2×VEGFR-2 kinase was taken with a transfer pipette to the corresponding reaction well of the 384-well plate, which was mixed and pre-reacted at room temperature for 30 min,
5. Negative control: 2.5 μl/well 4× substrate/ATP Mix and 7.5 μl 1× Kinase Assay Buffer were added to the wells of the 384-well plate,
Positive control: 2.5 μl/well 4× substrate/ATP Mix, 2.5 μl/well 1× Kinase Assay Buffer containing 4% DMSO, and 5 μl/well 2×VEGFR-2 solution were added to the 384-well plate. The final concentration of DMSO in the reaction system is […],
6. The mixture was mixed well and then centrifuged and reacted at room temperature in dark for 60 min,
9. The 384-well plate was placed into the Envision plate reader and the signal was detected using the appropriate program,
Consider `COc1cc2ncnc(Nc3ccc(NC(=O)NC4CCCC4)c(Cl)c3)c2c2c1OCCO2` [Example 28, 1-(2-chloro-4-((5-methoxy-2,3-dihydro-[1,4]dioxino[2,3-f]quinazolin-10-yl)amino)phenyl)-3-cyclopentylurea], for which the IC50 was in the range of 50 to 500 nM.
`COCCCOc1cc2ncnc(Oc3ccc(NC(=O)NC4CC4)c(Cl)c3)c2c2c1OCCO2` [Example 86, 1-(2-chloro-4-(((5-(3-methoxy)propoxy)-2,3-dihydro-[1,4]dioxino[2,3-f]quinazolin-10-yl)oxy)phenyl)-3-cyclopropylurea]: the IC50 is less than 50 nM.
In the case of `CN(C)CCOc1cc2ncnc(Nc3ccc(NC(=O)NC4CC4)c(Cl)c3)c2c2c1OCCO2` [Example 87] it was 50 to 500 nM; in that of `O=C(Nc1ccc(Oc2ncnc3cc(OC4CCOC4)c4c(c23)OCCO4)cc1)Nc1cc(C(F)(F)F)ccc1F` (stereo not drawn) [Example 80, 1-(2-fluoro-5-(trifluoromethyl)phenyl)-3-(4-((5-((tetrahydrofuran-3-yl)oxy)-2,3-dihydro-[1,4]dioxino[2,3-f]quinazolin-10-yl)oxy)phenyl)urea], less than 50 nM; in that of `COc1cc2ncnc(Nc3ccc(NC(=O)Nc4cc(C)no4)c(Cl)c3)c2c2c1OCCO2` [Example 8, 1-(2-chloro-4-((5-methoxy-2,3-dihydro-[1,4]dioxino[2,3-f]quinazolin-10-yl)amino)phenyl)-3-(3-methylisoxazol-5-yl)urea], 50 to 500 nM.
Under `CN1CCN(CCOc2cc3ncnc(Nc4ccc(NC(=O)NC5CC5)c(Cl)c4)c3c3c2OCCO3)CC1` [Example 83, 1-(2-chloro-4-((5-(2-(1-methylpiperazin-4-yl)ethoxy)-2,3-dihydro-[1,4]dioxino[2,3-f]quinazolin-10-yl)amino)phenyl)-3-cyclopropylurea] stands 50 to 500 nM; under `COCCOc1cc2ncnc(Nc3ccc(NC(=O)Nc4cc(C)no4)c(Cl)c3)c2c2c1OCCO2` [Example 39, 1-(2-chloro-4-((5-(2-methoxyethoxy)-2,3-dihydro-[1,4]dioxino[2,3-f]quinazolin-10-yl)amino)phenyl)-3-(3-methylisoxazol-5-yl)urea], less than 50 nM; under `COCCOc1cc2ncnc(Oc3ccc(NC(=O)Nc4ccnc(OC)c4)cc3)c2c2c1OCCO2` [Example 52, 1-(4-((5-(2-methoxyethoxy)-2,3-dihydro-[1,4]dioxino[2,3-f]quinazolin-10-yl)oxy)phenyl)-3-(2-methoxypyridin-4-yl)urea], less than 50 nM.
In the case of `O=C(Nc1ccc(Oc2ncnc3cc(OCCCN4CCOCC4)c4c(c23)OCCO4)cc1)Nc1cc(Cl)ccc1F` [Example 89, 1-(2-fluoro-5-chlorophenyl)-3-(4-((5-(3-morpholinopropoxy)-2,3-dihydro-[1,4]dioxino[2,3-f]quinazolin-10-yl)oxy)phenyl)urea] it was less than 50 nM.
On to `COCCOc1cc2ncnc(Nc3ccc(NC(=O)NC4CC4)c(Cl)c3)c2c2c1OCCO2` [Example 34, 1-(2-chloro-4-((5-(2-methoxyethoxy)-2,3-dihydro-[1,4]dioxino[2,3-f]quinazolin-10-yl)amino)phenyl)-3-cyclopropylurea], for which the IC50 is less than 50 nM.
Compound `COc1cc2ncnc(Nc3ccc(NC(=O)Nc4ccc(Oc5ccccc5)cc4)c(Cl)c3)c2c2c1OCCO2` [Example 13, 1-(2-chloro-4-((5-methoxy-2,3-dihydro-[1,4]dioxino[2,3-f]quinazolin-10-yl)amino)phenyl)-3-(4-(phenoxy)phenyl)urea] gave an IC50 of more than 5000 nM.
In the case of `COCCOc1cc2ncnc(Oc3ccc(NC(=O)Nc4ccc(Cl)c(C(F)(F)F)c4)cn3)c2c2c1OCCO2` [Example 60, 1-(4-chloro-3-(trifluoromethyl)phenyl)-3-(6-((5-(2-methoxyethoxy)-2,3-dihydro-[1,4]dioxino[2,3-f]quinazolin-10-yl)oxy)pyridin-3-yl)urea] it was 50 to 500 nM.
In the case of `COc1cc(NC(=O)Nc2ccc(Oc3ncnc4cc(OC)c5c(c34)OCCO5)c(Cl)c2)ccn1` [Example 26, 1-(3-chloro-4-((5-methoxy-2,3-dihydro-[1,4]dioxino[2,3-f]quinazolin-10-yl)oxy)phenyl)-3-(2-methoxypyridin-4-yl)urea] it was less than 50 nM; in that of `COc1cccc(NC(=O)Nc2ccc(Nc3ncnc4cc(OC)c5c(c34)OCCO5)cc2)c1` [Example 3, 1-(4-((5-methoxy-2,3-dihydro-[1,4]dioxino[2,3-f]quinazolin-10-yl)amino)phenyl)-3-(3-methoxyphenyl)urea], 50 to 500 nM.
The compound `COc1cc2ncnc(Nc3ccc(NC(=O)NC4CC4)cc3)c2c2c1OCCO2` [Example 1, 1-(4-((5-methoxy-2,3-dihydro-[1,4]dioxino[2,3-f]quinazolin-10-yl)amino)phenyl)-3-cyclopropylurea] displayed an IC50 of 50 to 500 nM.
`COc1cc2nccc(Oc3ccc(NC(=O)Nc4ccc(Cl)c(C(F)(F)F)c4)cc3F)c2c2c1OCCO2` [Example 91, 1-(4-chloro-3-(trifluoromethyl)phenyl)-3-(3-fluoro-4-((5-methoxy-2,3-dihydro-[1,4]dioxino[2,3-f]quinoline-10-yl)oxy)phenyl)urea] yielded an IC50 of 50 to 500 nM.
`COc1cc2nccc(Oc3ccc(NC(=O)Nc4ccc(Cl)c(C(F)(F)F)c4)cc3)c2c2c1OCCO2` [Example 90, 1-(4-chloro-3-(trifluoromethyl)phenyl)-3-(4-((5-methoxy-2,3-dihydro-[1,4]dioxino[2,3-f]quinolin-10-yl)oxy)phenyl)urea] returned an IC50 of less than 50 nM.
With `COCCOc1cc2ncnc(Oc3ccc(NC(=O)Nc4cccc(OC)c4)cc3Cl)c2c2c1OCCO2` [Example 51, 1-(3-chloro-4-((5-(2-methoxyethoxy)-2,3-dihydro-[1,4]dioxino[2,3-f]quinazolin-10-yl)oxy)phenyl)-3-(3-methoxyphenyl)urea], the IC50 was less than 50 nM.
Turning to `COCCOc1cc2ncnc(Oc3ccc(NC(=O)NC4CCCC4)c(Cl)c3)c2c2c1OCCO2` [Example 55, 1-(2-chloro-4-((5-(2-methoxyethoxy)-2,3-dihydro-[1,4]dioxino[2,3-f]quinazolin-10-yl)oxy)phenyl)-3-cyclopentylurea], the IC50 is less than 50 nM.
In the case of `COc1cc2ncnc(Oc3ccc(NC(=O)Nc4ccc(F)cc4F)c(F)c3)c2c2c1OCCO2` [Example 21, 1-(2,4-difluorophenyl)-3-(2-fluoro-4-((5-methoxy-2,3-dihydro-[1,4]dioxino[2,3-f]quinazolin-10-yl)oxy)phenyl)urea] it was less than 50 nM; in that of `COc1cc2ncnc(Nc3ccc(NC(=O)Nc4ccccn4)c(Cl)c3)c2c2c1OCCO2` [Example 5, 1-(2-chloro-4-((5-methoxy-2,3-dihydro-[1,4]dioxino[2,3-f]quinazolin-10-yl)amino)phenyl)-3-(pyridin-2-yl)urea], more than 5000 nM; in that of `CSCCOc1cc2ncnc(Oc3ccc(NC(=O)NC4CC4)c(Cl)c3)c2c2c1OCCO2` [Example 85, 1-(2-chloro-4-(((5-(2-methylthio)ethoxy)-2,3-dihydro-[1,4]dioxino[2,3-f]quinazolin-10-yl)oxy)phenyl)-3-cyclopropylurea], 500 to 5000 nM.
In the case of `COCCOc1cc2ncnc(Nc3ccc(NC(=O)Nc4ccc(C(F)(F)F)cc4F)c(Cl)c3)c2c2c1OCCO2` [Example 43, 1-(2-chloro-4-((5-(2-methoxyethoxy)-2,3-dihydro-[1,4]dioxino[2,3-f]quinazolin-10-yl)amino)phenyl)-3-(2-fluoro-4-(trifluoromethyl)phenyl)urea] it was less than 50 nM.
As for `COCCOc1cc2ncnc(Nc3ccc(NC(=O)NC(C)C)c(Cl)c3)c2c2c1OCCO2` [Example 40, 1-(2-chloro-4-((5-(2-methoxyethoxy)-2,3-dihydro-[1,4]dioxino[2,3-f]quinazolin-10-yl)amino)phenyl)-3-isopropylurea], the IC50 is 50 to 500 nM.
`O=C(Nc1ccc(Oc2ncnc3cc(OCCN4CCOCC4)c4c(c23)OCCO4)cc1)Nc1ccc(Cl)c(C(F)(F)F)c1` [Example 72, 1-(4-chloro-3-(trifluoromethyl)phenyl)-3-(4-((5-(2-morpholinoethoxy)-2,3-dihydro-[1,4]dioxino[2,3-f]quinazolin-10-yl)oxy)phenyl)urea]: the IC50 lay within 500 to 5000 nM.
In the case of `O=C(Nc1ccc(Oc2ncnc3cc(OCCCN4CCOCC4)c4c(c23)OCCO4)cc1)Nc1ccc(F)c(Cl)c1` [Example 74, 1-(3-chloro-4-fluorophenyl)-3-(4-((5-(3-morpholinopropoxy)-2,3-dihydro-[1,4]dioxino[2,3-f]quinazolin-10-yl)oxy)phenyl)urea] it was less than 50 nM.
Under `COCCOc1cc2ncnc(Oc3ccc(NC(=O)NC4CCCCC4)c(Cl)c3)c2c2c1OCCO2` [Example 56, 1-(2-chloro-4-((5-(2-methoxyethoxy)-2,3-dihydro-[1,4]dioxino[2,3-f]quinazolin-10-yl)oxy)phenyl)-3-cyclohexylurea] stands less than 50 nM; under `COc1cc2ncnc(Nc3ccc(NC(=O)NC4CCC4)c(Cl)c3)c2c2c1OCCO2` [Example 27, 1-(2-chloro-4-((5-methoxy-2,3-dihydro-[1,4]dioxino[2,3-f]quinazolin-10-yl)amino)phenyl)-3-cyclobutylurea], less than 50 nM.
In the case of `COc1cccc(NC(=O)Nc2ccc(Oc3ncnc4cc(OC)c5c(c34)OCCO5)c(Cl)c2)c1` [Example 24, 1-(3-chloro-4-((5-methoxy-2,3-dihydro-[1,4]dioxino[2,3-f]quinazolin-10-yl)oxy)phenyl)-3-(3-methoxyphenyl)urea] it was less than 50 nM.
`COc1cc2ncnc(Nc3ccc(NC(=O)NC4CC4)c(Cl)c3)c2c2c1OCCO2` [Example 2, 1-(2-chloro-4-((5-methoxy-2,3-dihydro-[1,4]dioxino[2,3-f]quinazolin-10-yl)amino)phenyl)-3-cyclopropylurea]: the IC50 is less than 50 nM.
